Source: US5607937A, “Piperazides of substituted phenylalanine derivatives as thrombin inhibitors” (priority 1993, dated 1997)

How the values were obtained:
[1] = plasma concentration in rats after oral administration; format: in vivo; conditions: rat
Method: A physiological NaCl solution of the substance to be tested was submitted to high pressure liquid chromatography (HPLC) in order to determine its characteristic substance-specific retention time with the chosen test conditions.
The substance to be tested was diluted in vitro in rat plasma. This solution was also submitted to HPLC to see whether the characteristic peak of the substance once again appeared at the substance-specific retention time.
Blood samples were taken at time intervals of 15 minutes, from which plasma samples were prepared by centrifugation; those samples were also submitted to HPLC to see whether the characteristic peak of the substance appeared again at the substance-specific retention time.
After administration, blood samples were taken from the test animals at time intervals from 2 to maximally 360 minutes and the blood level of the compounds to be tested was determined by HPLC.

[2] = biological target: T1, trypsin (Bos taurus, UniProt P00760); experiment: inhibition of trypsin, dissociation constant Ki; format: biochemical; parameters: thrombin and the related enzymes trypsin, plasmin, factor Xa, factor XIIa
T1 sequence (P00760 24-246): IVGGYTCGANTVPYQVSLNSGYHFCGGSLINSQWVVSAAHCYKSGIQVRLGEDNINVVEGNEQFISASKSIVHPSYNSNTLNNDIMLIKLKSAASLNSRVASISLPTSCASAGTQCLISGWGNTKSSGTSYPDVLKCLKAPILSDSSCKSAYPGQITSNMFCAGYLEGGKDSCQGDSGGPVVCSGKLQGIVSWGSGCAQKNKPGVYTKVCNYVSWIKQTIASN
Method: The biological activity of the compounds of the present invention was determined in vitro as well as in vivo.

[3] = test system: coagulation in human plasma; experiment: activated partial thromboplastin time (aPTT) in human plasma
[4] = biological target: plasma kallikrein (Homo sapiens, UniProt P03952); experiment: inhibition of plasma kallikrein, dissociation constant Ki
Sequence of plasma kallikrein (P03952 391-638 limits assumed, species assumed): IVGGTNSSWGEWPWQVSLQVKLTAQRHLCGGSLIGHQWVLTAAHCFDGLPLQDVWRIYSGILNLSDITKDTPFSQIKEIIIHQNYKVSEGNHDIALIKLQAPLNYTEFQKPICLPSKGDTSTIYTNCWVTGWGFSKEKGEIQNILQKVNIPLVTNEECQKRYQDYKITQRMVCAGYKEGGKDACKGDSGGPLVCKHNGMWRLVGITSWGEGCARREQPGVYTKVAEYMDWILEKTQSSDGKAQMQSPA
Sequence of plasma kallikrein (P03952 20-390 partner limits assumed, species assumed): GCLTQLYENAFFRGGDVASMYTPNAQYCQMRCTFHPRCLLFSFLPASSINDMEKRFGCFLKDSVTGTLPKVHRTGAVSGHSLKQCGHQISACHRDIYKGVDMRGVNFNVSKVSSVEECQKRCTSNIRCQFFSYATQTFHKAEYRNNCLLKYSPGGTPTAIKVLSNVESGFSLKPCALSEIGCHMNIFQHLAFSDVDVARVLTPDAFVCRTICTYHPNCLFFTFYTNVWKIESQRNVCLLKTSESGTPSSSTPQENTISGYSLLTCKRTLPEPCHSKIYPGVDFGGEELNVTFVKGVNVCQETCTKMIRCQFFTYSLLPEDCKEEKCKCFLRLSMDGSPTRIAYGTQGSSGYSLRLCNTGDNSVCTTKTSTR

## CC(=O)N1CCN(C(=O)[C@H](Cc2cccc(C(=N)N)c2)NS(=O)(=O)c2ccc3ccccc3c2)CC1.Cl [Compound 2, Nα-(2-naphthylsulfonyl)-(L)-3-amidinophenylalanine-4-acetylpiperazide hydrochloride]
[1]; plasma, oral 50 mg/kg, 30 min
  concentration at 0.5 h: 1200 ng/mL
[1]; plasma, oral 50 mg/kg, 60 min
  concentration at 1 h: 873 ng/mL
[1]; plasma, oral 50 mg/kg, 120 min
  concentration at 2 h: 333 ng/mL
[1]; plasma, oral 50 mg/kg, 180 min
  concentration at 3 h: 124 ng/mL
[1]; plasma, oral 50 mg/kg, 240 min
  concentration at 4 h: 44 ng/mL
[1]; plasma, oral 50 mg/kg, 300 min
  concentration at 5 h: 46 ng/mL
[1]; oral
  resorption in words: only slightly resorbed
[2]
  Ki: 0.044 µM
[3]
  Concentr. to double the aPTT: 0.36 µmol/L
  concentration to double the aPTT: ≤ 1 μmol/1
[4]
  Ki: 15 µM
